Data from ChEMBL document CHEMBL3885861, “Open TG-GATES”.

Organism: Rattus norvegicus
Assay: Open TG-GATES - Regimen: Single
Assay type: toxicity, organism-based, Sprague-Dawley
Set-up: regimen Single, gender Male, age 6 weeks
Conditions: in vivo, po, 300 mg/kg, route gavage, dose level Middle; for APTT / Bas / Eos / Fbg / Hb / Ht / Lym / MCH / MCHC / MCV / Mono / Neu / PT / Plat / RBC / Ret / WBC: tissue Blood; for KIDNEY_L / KIDNEY_R / KIDNEY_TOTAL: tissue Kidney; for LIVER: tissue Liver; for A/G / ALP / ALT / AST / BUN / CRE / Ca / Cl / DBIL / GLC / IP / K / LDH / Na / PL / RALB / TBIL / TC / TG / TP / gamma-GTP: tissue Plasma

With `CN(C)[C@@H]1C(O)=C(C(N)=O)C(=O)[C@@]2(O)C(O)=C3C(=O)c4c(O)cccc4[C@@](C)(O)[C@H]3C[C@@H]12` [TETRACYCLINE] the TERMINAL_BW (3 h) was 186.7 g, the APTT (3 h) was 16.4 s and the Bas (3 h) was 0%. The Eos (3 h) was 0.6%, the Fbg (3 h) was 198 mg/dL and the Hb (3 h) was 13.6 g/dL. For the same compound, the Ht (3 h) was 41%, the Lym (3 h) was 76.4% and the MCH (3 h) was 21.9 pg. The MCHC (3 h) was 33.1%, the MCV (3 h) was 66.2 fL and the Mono (3 h) was 8.4%. For the same compound, the Neu (3 h) was 14.8%, the PT (3 h) was 12.3 s and the Plat (3 h) was 97.2 x10_4/uL. It also gave an RBC (3 h) of 619.2 x10_4/ul, a Ret (3 h) of 10% and a WBC (3 h) of 122.2 x10_2/uL. The KIDNEY_L (3 h) was 0.9 g, the KIDNEY_R (3 h) was 0.9 g and the KIDNEY_TOTAL (3 h) was 1.8 g. It also gave an LIVER (3 h) of 9 g, an A/G (3 h) of 1.9 and an ALP (3 h) of 940.2 IU/L. The ALT (3 h) was 42.2 IU/L, the AST (3 h) was 74.4 IU/L and the BUN (3 h) was 13.2 mg/dL. The CRE (3 h) was 0.5 mg/dL, the Ca (3 h) was 10.9 mg/dL and the Cl (3 h) was 104.6 meq/L. The DBIL (3 h) was 0.026 mg/dL, the GLC (3 h) was 179.6 mg/dL and the IP (3 h) was 11.5 mg/dL. It also gave a K (3 h) of 5.4 meq/L, an LDH (3 h) of 103 IU/L and a Na (3 h) of 137.2 meq/L. The PL (3 h) was 129.6 mg/dL, the RALB (3 h) was 3.6 g/dL and the TBIL (3 h) was 0.4 mg/dL. It also gave a TC (3 h) of 71.4 mg/dL, a TG (3 h) of 39.4 mg/dL and a TP (3 h) of 5.5 g/dL. For the same compound, the gamma-GTP (3 h) was 1.6 IU/L, the TERMINAL_BW (6 h) was 183.9 g and the APTT (6 h) was 17.1 s. The Bas (6 h) was 0%, the Eos (6 h) was 0.6% and the Fbg (6 h) was 206.8 mg/dL. The Hb (6 h) was 13.4 g/dL, the Ht (6 h) was 40.3% and the Lym (6 h) was 78.6%. The MCH (6 h) was 22.5 pg, the MCHC (6 h) was 33.3% and the MCV (6 h) was 67.7 fL. For the same compound, the Mono (6 h) was 5.6%, the Neu (6 h) was 15.4% and the PT (6 h) was 12.1 s. It also gave a Plat (6 h) of 103.8 x10_4/uL, an RBC (6 h) of 595.2 x10_4/ul and a Ret (6 h) of 10.1%. It also gave a WBC (6 h) of 91.7 x10_2/uL, a KIDNEY_L (6 h) of 0.9 g and a KIDNEY_R (6 h) of 0.9 g. The KIDNEY_TOTAL (6 h) was 1.7 g, the LIVER (6 h) was 8.3 g and the A/G (6 h) was 2.1. For the same compound, the ALP (6 h) was 930.4 IU/L, the ALT (6 h) was 36.4 IU/L and the AST (6 h) was 72.4 IU/L. The BUN (6 h) was 12.4 mg/dL, the CRE (6 h) was 0.4 mg/dL and the Ca (6 h) was 10.7 mg/dL. For the same compound, the Cl (6 h) was 106 meq/L, the DBIL (6 h) was 0.012 mg/dL and the GLC (6 h) was 193.8 mg/dL. For the same compound, the IP (6 h) was 11.1 mg/dL, the K (6 h) was 5.2 meq/L and the LDH (6 h) was 104.4 IU/L. For the same compound, the Na (6 h) was 137.2 meq/L, the PL (6 h) was 130.6 mg/dL and the RALB (6 h) was 3.6 g/dL. For the same compound, the TBIL (6 h) was 0.4 mg/dL, the TC (6 h) was 72.8 mg/dL and the TG (6 h) was 49.4 mg/dL. It also gave a TP (6 h) of 5.4 g/dL, a gamma-GTP (6 h) of 1.4 IU/L and a TERMINAL_BW (9 h) of 180.6 g. It also gave an APTT (9 h) of 16.6 s, a Bas (9 h) of 0% and an Eos (9 h) of 0.6%. The Fbg (9 h) was 211 mg/dL, the Hb (9 h) was 13.1 g/dL and the Ht (9 h) was 39.7%. It also gave a Lym (9 h) of 79.6%, an MCH (9 h) of 21.7 pg and an MCHC (9 h) of 33.1%. It also gave an MCV (9 h) of 65.7 fL, a Mono (9 h) of 7.6% and a Neu (9 h) of 12.4%. It also gave a PT (9 h) of 12.3 s, a Plat (9 h) of 102.2 x10_4/uL and an RBC (9 h) of 603.4 x10_4/ul. For the same compound, the Ret (9 h) was 9.1%, the WBC (9 h) was 101.6 x10_2/uL and the KIDNEY_L (9 h) was 0.8 g. For the same compound, the KIDNEY_R (9 h) was 0.8 g, the KIDNEY_TOTAL (9 h) was 1.7 g and the LIVER (9 h) was 7.5 g. The A/G (9 h) was 2.4, the ALP (9 h) was 849.2 IU/L and the ALT (9 h) was 37 IU/L. The AST (9 h) was 71.2 IU/L, the BUN (9 h) was 13.4 mg/dL and the CRE (9 h) was 0.4 mg/dL. For the same compound, the Ca (9 h) was 10.6 mg/dL, the Cl (9 h) was 106.2 meq/L and the DBIL (9 h) was 0.036 mg/dL. It also gave a GLC (9 h) of 182.8 mg/dL, an IP (9 h) of 10.4 mg/dL and a K (9 h) of 4.7 meq/L. The LDH (9 h) was 92.6 IU/L, the Na (9 h) was 138.4 meq/L and the PL (9 h) was 126.8 mg/dL. For the same compound, the RALB (9 h) was 3.8 g/dL, the TBIL (9 h) was 0.4 mg/dL and the TC (9 h) was 75.6 mg/dL. The TG (9 h) was 24.6 mg/dL, the TP (9 h) was 5.4 g/dL and the gamma-GTP (9 h) was 2.2 IU/L. It also gave a TERMINAL_BW (24 h) of 200.3 g, an APTT (24 h) of 15.9 s and a Bas (24 h) of 0%. It also gave an Eos (24 h) of 0.8%, a Fbg (24 h) of 202.8 mg/dL and a Hb (24 h) of 13 g/dL. For the same compound, the Ht (24 h) was 39.3%, the Lym (24 h) was 83.6% and the MCH (24 h) was 21.6 pg. The MCHC (24 h) was 33.2%, the MCV (24 h) was 65 fL and the Mono (24 h) was 8.2%. The Neu (24 h) was 7.4%, the PT (24 h) was 12.1 s and the Plat (24 h) was 117.3 x10_4/uL. For the same compound, the RBC (24 h) was 605 x10_4/ul, the Ret (24 h) was 9.9% and the WBC (24 h) was 102.9 x10_2/uL. For the same compound, the KIDNEY_L (24 h) was 0.9 g, the KIDNEY_R (24 h) was 0.9 g and the KIDNEY_TOTAL (24 h) was 1.9 g. For the same compound, the LIVER (24 h) was 8.5 g, the A/G (24 h) was 2.2 and the ALP (24 h) was 1031.8 IU/L. It also gave an ALT (24 h) of 41.6 IU/L, an AST (24 h) of 73.8 IU/L and a BUN (24 h) of 18.4 mg/dL. It also gave a CRE (24 h) of 0.5 mg/dL, a Ca (24 h) of 11.3 mg/dL and a Cl (24 h) of 105 meq/L. For the same compound, the DBIL (24 h) was 0.016 mg/dL, the GLC (24 h) was 184.4 mg/dL and the IP (24 h) was 9.9 mg/dL. For the same compound, the K (24 h) was 5 meq/L, the LDH (24 h) was 96.8 IU/L and the Na (24 h) was 141 meq/L. It also gave a PL (24 h) of 149.2 mg/dL, an RALB (24 h) of 3.8 g/dL and a TBIL (24 h) of 0.4 mg/dL. For the same compound, the TC (24 h) was 80.8 mg/dL, the TG (24 h) was 57.2 mg/dL and the TP (24 h) was 5.6 g/dL. The gamma-GTP (24 h) was 1.4 IU/L.
